Columns and labels:
[1] = tested on: erythroid cells from MPN patients; assay: Colony formation assay from patient samples; format: cell-based, human; conditions: two patient samples (ET; PV, Ruxolitinib resistant)
Protocol: (§1) To determine the effects of selective HDAC11 inhibition on MPN patient samples, the effects of HDAC11 inhibitors were evaluated in a colony formation assay with erythroid or myeloid cells from MPN patients. Peripheral blood was obtained from MPN patients consented through the Moffitt Cancer Center Total Cancer Care protocol (MCC 14690). Blood was treated with HetaSep™ (STEMCELL Technologies, Inc.) to remove the majority of red blood cells. Peripheral blood mononuclear cells (PBMCs) were isolated by ficoll separation. PBMCs (1-4×105) were then plated in 1 mL of methylcellulose medium containing rhSCF, rhIL-3, and granulocyte-macrophage colony-stimulating factor (rhGM-CSF) (MethoCult™ #H4534; STEMCELL Technologies, Inc.). All drug treated samples contained 0.1% DMSO as the final concentration. Cells were incubated at 37° C. and 5% CO2 in a humidified incubator. Colonies were scored 12 to 14 days after plating.

[2] = tested on: myeloid cells from MPN patients; assay: Colony formation assay from patient samples; format: cell-based, human; conditions: two patient samples (ET; PV, Ruxolitinib resistant)
Protocol: as §1

HEL 92.1.7 cells = assay: Cell proliferation assay (CCK8); format: cell-based; conditions: 48h
Protocol: (§2) This example describes inhibition of in vitro cell proliferation with exemplary HDAC11 inhibitors. The effects of selective HDAC11 inhibitors on cell proliferation were measured in cell lines containing the MPN-associated mutations MPL W515L (Ba/F3 MPL W515L) and JAK2 V617F (Ba/F3 JAK2 V617F, HEL 92.1.7, SET-2). HEL 92.1.7 and SET-2 cells were purchased from the ATCC and DSMZ, respectively. Ba/F3 cells overexpressing either MPLW515L or JAK2V617F, which were cytokine independent, were generated by transforming Ba/F3 cells with retroviruses overexpressing either MPL W515L or JAK2V617F. For survival assays, cells were seeded in 96-well plates at the density of 0.1 million/ml with addition of indicated compounds and incubated at 37° C. for 48h. CCK8 solution (Dojindo, Rockville, Md.) was added and absorbance at 450 nm was measured after 3 hours of incubation. Readings were normalized to dimethylsulfoxide (DMSO)-treated wells.

SET-2 cells = assay: Cell proliferation assay (CCK8); format: cell-based; conditions: Ruxolitinib-resistant SET-2
Protocol: as §2

H1650 SP cells = assay: Tube formation assay with stem-like side population NSCLC cells; format: cell-based; conditions: on Matrigel, overnight
Protocol: The angiogenic tubule assay was performed with the sorted side population cells to analyze vascular mimicry. The H1650 side population cells were sorted as mentioned above and they were further grown on Matrigel (BD Biosciences) to form angiogenic tubule-like structures. 100 μl of thawed Matrigel was layered on the wells of 96-well tissue culture plates and allowed to polymerize at 37° C. for 30 min. Sorted H1650 SP cells were layered (12000 cells/100 μl of Matrigel) on the polymerized matrigel and incubated overnight at 37° C. Tubule formation was assessed under bright field using EVOS FL microscope system and images were acquired with EVOS software (Life Technologies Inc., USA). For the treatment with HDAC11 inhibitors, appropriate concentrations of the compounds were added to the cells when they were seeded on Matrigel for the tubule formation assay.

[3] = tested on: H1650 cells co-cultured with primary CAFs from human lung cancer; assay: Co-culture assay with cancer cells and cancer associated fibroblasts; format: cell-based
Protocol: The effects of selective HDAC11 inhibition on cancer cells and cancer associated fibroblasts (CAFs) were determined in a co-culture assay. The cells were first trypsinized and collected in serum containing medium and were further incubated in same media at 37° C. for 15-20 min for recovery. The cells were resuspended in serum free media at 1×10^6 cells/ml density and stained with 10 uM of cytotracker green (Cancer associated fibroblasts) or cytotracker red dye (H1650 cells) (Life Technologies Inc) at 37° C. for 90 min. The stained cells were washed twice with serum free medium to remove excess dye at 1500 rpm for 5 min. The cytotracker green stained CAFs were mixed with cytotracker red stained H1650 cells in 1:1 ratio and grown in 96-well tissue culture plate overnight. The HDAC11 inhibitors were then added to the mixed adhered cells (CAFs+H1650) at appropriate concentrations. The images were taken on Day 0 and after every 24 hours using EVOS FL microscope system and EVOS software (Life Technologies Inc).

A549 cells = assay: Cell migration (scratch) assay; format: cell-based
Protocol: The effects of HDAC11 inhibition on cell migration were determined using a scratch assay. A549 cells (120,000-150,000 cells/2 ml/well) were grown in 6-well tissue culture plates (BD Biosciences). A scratch was made using a sterile 2 μl pipette tip in each well. The 10% FBS containing medium was added to the wells after a wash with DPBS. To assess the effect of the HDAC11 inhibitors on cell migration, the inhibitors were added in the medium at appropriate concentrations. The cells were further incubated at 37° C. The images were taken on Day 0 and after every 24 hours using EVOS FL microscope system and EVOS software (Life Technologies Inc) and the cell migration was compared to the Day 0 of treatment.

Ba/F3 MPL W515L cells = assay: Cell proliferation assay (CCK8); format: cell-based; conditions: Mus musculus, BaF3; Ba/F3 MPLW515L, 48h; read-out: IC50, inhibition of proliferation
Protocol: as §2

Ba/F3 JAK2 V617F cells = assay: Cell proliferation assay (CCK8); format: cell-based; conditions: Mus musculus, BaF3; Ba/F3 JAK2V617F, 48h; read-out: IC50, inhibition of proliferation
Protocol: as §2

Row | SMILES | growth of colonies from erythroid cells [1] | growth of colonies from myeloid cells [2] | growth of the HEL 92.1.7 cell line (HEL 92.1.7 cells) | growth of a SET-2 cell line generated to be Ruxolitinib-resistant (SET-2 cells) | tubule formation by H1650 SP cells (H1650 SP cells) | growth of H1650 cells co-cultured with primary CAFs ([3]; 1:1 co-culture) | effects on CAFs ([3]; 1:1 co-culture with H1650 cells) | A549 cell migration (A549 cells) | IC50 (Ba/F3 MPL W515L cells) [µM] | IC50 (Ba/F3 JAK2 V617F cells) [µM]
1 | O=C(NO)c1cccc(Nc2nc3cc(Cl)c(Cl)cc3o2)c1 [HDTK010, 3-((5,6-dichlorobenzo[d]oxazol-2-yl)amino)-N-hydroxybenzamide] | reduced the growth of colonies | reduced the growth of colonies | inhibited the growth | inhibited the growth |  |  |  |  |  | 
2 | O=C(NO)c1cccc2c1C[C@]1(CCN(Cc3ccc(Cl)c(C(F)(F)F)c3)C1=O)C2 [HDTK054, (S)-1′-(4-chloro-3-(trifluoromethyl)benzyl)-N-hydroxy-2′-oxo-1,3-dihydrospiro[indene-2,3′-pyrrolidine]-4-carboxamide] |  |  |  |  | inhibited tubule formation | inhibit the growth | minimal effects | impaired A549 cell migration | 1 to 10 | 1 to 10
